Test results from PMC2574679 (Journal of the American Chemical Society, 2008).
pIC50: −log10 of the molar value.

Target: Bcl-XL (Homo sapiens, UniProt Q07817)
Type: binding

Sequence of Bcl-XL (Q07817 whole entry): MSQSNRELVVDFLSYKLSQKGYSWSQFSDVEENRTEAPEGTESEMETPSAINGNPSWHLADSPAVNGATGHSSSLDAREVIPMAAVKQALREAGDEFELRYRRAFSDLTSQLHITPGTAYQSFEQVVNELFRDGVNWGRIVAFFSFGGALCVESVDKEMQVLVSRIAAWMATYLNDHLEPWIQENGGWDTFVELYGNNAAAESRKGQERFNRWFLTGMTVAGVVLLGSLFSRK

Molecule `CC1(C)CCN(c2ccc(C(=O)NS(=O)(=O)c3ccc(NCCSc4ccccc4)c([N+](=O)[O-])c3)cc2)CC1` [SZ4TA2] has a pIC50 of 7.10.
